For 25 compounds, EC50 results are on record in patent US10556907B2 (AbbVie Inc., priority 2015, dated 2020).

A value given as a limit tells only on which side of the number the result lay.

Holding throughout (assay): Method 1: intracellular Ca2+ release (FLIPR, Calcium 5) in recombinant CHO-K1 cells
Common to all, as to assay type: cell-based

One test concerns the target T1, human S1PR4 receptor (Homo sapiens, UniProt O95977).
T1 construct: host or cells: CHO-K1
T1 sequence (O95977 1-384): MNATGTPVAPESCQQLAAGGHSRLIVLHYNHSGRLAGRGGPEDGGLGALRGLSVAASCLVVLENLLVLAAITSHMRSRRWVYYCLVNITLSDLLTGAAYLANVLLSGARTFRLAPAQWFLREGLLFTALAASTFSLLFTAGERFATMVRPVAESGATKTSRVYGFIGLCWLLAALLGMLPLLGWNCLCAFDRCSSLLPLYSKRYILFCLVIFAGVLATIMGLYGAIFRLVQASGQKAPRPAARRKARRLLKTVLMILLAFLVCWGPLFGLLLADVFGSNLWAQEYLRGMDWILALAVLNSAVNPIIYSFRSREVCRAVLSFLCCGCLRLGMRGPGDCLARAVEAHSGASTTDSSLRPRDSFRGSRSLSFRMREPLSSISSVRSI
The following applies: (1): determined with method 1; read-out: S1P4 EC50. The gist of the method:
(§1)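 Cells expressing the receptor with promiscuous Gq/i5 are dye-loaded, equilibrated at room temperature and challenged with test compound while fluorescence is recorded by FLIPR. Potency is derived by nonlinear fitting after normalization to phospho-fingolimod.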

Another test addresses T2, human S1PR5 receptor (Homo sapiens, UniProt Q9H228).
T2 construct: host or cells: CHO-K1
The following applies: agonist potency, determined with method 1 (symbols A-D); read-out: S1P5 EC50 range. The gist of the method: as §1

The target of another test is T3, human S1PR1 receptor (Homo sapiens, UniProt P21453).
T3 construct: host or cells: CHO-K1
Particulars: (1): determined with method 1; read-out: S1P1 EC50. The gist of the method: as §1

The next test concerns the target T4, human S1PR3 receptor (Homo sapiens, UniProt Q99500).
T4 construct: host or cells: CHO-K1
The following applies: (1): determined with method 1; read-out: S1P3 EC50. The gist of the method: as §1

By EC50 is commonly meant the concentration needed to bring the measured effect to its halfway point.

T3 sequence (P21453 whole entry): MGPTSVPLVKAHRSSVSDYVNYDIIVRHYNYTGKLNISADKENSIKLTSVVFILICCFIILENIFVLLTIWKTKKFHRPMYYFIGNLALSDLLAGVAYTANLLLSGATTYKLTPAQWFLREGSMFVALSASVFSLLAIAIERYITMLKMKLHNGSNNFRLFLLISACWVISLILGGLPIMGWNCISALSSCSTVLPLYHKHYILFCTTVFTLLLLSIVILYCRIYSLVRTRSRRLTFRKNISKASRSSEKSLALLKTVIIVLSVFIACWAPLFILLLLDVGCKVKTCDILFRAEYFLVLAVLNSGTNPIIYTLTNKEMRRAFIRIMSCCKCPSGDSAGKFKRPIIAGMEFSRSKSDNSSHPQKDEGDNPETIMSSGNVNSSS
T4 sequence (Q99500 whole entry): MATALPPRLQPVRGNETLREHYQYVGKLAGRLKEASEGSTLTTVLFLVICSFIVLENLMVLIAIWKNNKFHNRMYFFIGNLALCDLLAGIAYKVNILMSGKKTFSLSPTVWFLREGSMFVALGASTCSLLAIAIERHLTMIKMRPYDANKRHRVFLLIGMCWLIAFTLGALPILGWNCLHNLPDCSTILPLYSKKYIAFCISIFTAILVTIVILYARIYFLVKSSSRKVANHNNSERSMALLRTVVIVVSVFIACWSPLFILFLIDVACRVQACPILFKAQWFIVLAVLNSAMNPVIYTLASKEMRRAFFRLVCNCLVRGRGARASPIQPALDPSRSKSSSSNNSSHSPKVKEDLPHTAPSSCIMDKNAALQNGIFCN
T2 sequence (Q9H228 whole entry): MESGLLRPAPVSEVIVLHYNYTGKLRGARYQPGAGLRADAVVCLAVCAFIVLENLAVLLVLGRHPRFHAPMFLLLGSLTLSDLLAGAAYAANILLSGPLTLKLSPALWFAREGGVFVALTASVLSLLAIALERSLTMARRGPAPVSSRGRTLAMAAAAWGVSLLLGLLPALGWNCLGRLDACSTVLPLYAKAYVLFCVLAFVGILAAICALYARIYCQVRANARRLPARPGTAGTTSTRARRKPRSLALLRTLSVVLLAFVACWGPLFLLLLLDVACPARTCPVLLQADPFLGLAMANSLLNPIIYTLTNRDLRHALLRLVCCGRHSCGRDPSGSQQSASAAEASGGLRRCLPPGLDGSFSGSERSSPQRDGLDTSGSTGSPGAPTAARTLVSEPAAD

Consider `C[C@H](CC(=O)O)CN1CCc2nc(-c3ccc(C(F)(F)Cc4ccc(Cl)cc4)cc3)ncc2C1` (single isomer, unassigned) [Compound 294, 4-(2-(4-(2-(4-chlorophenyl)-1,1-difluoroethyl)phenyl)-7,8-dihydropyrido[4,3-d]pyrimidin-6(5H)-yl)-3-methylbutanoic acid], for which the EC50 is over 1 µM at human S1PR4 receptor, 0.1 to 1 µM on human S1PR5 receptor and over 1 µM at human S1PR1 receptor.
With `O=C(O)CC1CC(N2CCc3nc(-c4ccc(OCc5ccc(Cl)c(Cl)c5)cc4)ncc3C2)C1` (stereo not drawn) [Compound 4, 2-(3-(2-(4-((3,4-dichlorobenzyl)oxy)phenyl)-7,8-dihydropyrido[4,3-d]pyrimidin-6(5H)-yl)cyclobutyl)acetic acid], the figures for the EC50 on human S1PR4 receptor, on human S1PR5 receptor and on human S1PR1 receptor were over 1 µM, 0.1 to 1 µM and over 1 µM, respectively.
Take `O=C(O)CC1CC(N2CCc3nc(-c4ccc(OCc5cc(Cl)cc(Cl)c5)cc4)ncc3C2)C1` (stereo not drawn) [Compound 5, 2-(3-(2-(4-((3,5-dichlorobenzyl)oxy)phenyl)-7,8-dihydropyrido[4,3-d]pyrimidin-6(5H)-yl)cyclobutyl)acetic acid]: the results for the concentration giving a half-maximal response (EC50) on human S1PR4 receptor, on human S1PR5 receptor and on human S1PR1 receptor were over 1 µM, 0.1 to 1 µM and over 1 µM, respectively.
Consider `O=C(O)CN1CCc2nc(-c3ccc(OCc4ccccc4)cc3)ncc2C1` [Compound 25, 2-(2-(4-(benzyloxy)phenyl)-7,8-dihydropyrido[4,3-d]pyrimidin-6(5H)-yl)acetic acid], for which the EC50 on human S1PR4 receptor is over 1 µM; at human S1PR5 receptor, 0.1 to 1 µM; on human S1PR1 receptor, over 1 µM.
In the case of `O=C(O)CN1CCc2nc(Cc3c(F)cccc3F)ncc2C1` [Compound 26, 2-(2-(2,6-difluorobenzyl)-7,8-dihydropyrido[4,3-d]pyrimidin-6(5H)-yl)acetic acid], the half-maximal effective concentration (EC50) is over 1 µM at human S1PR4 receptor, 1 to 10 µM at human S1PR5 receptor and over 1 µM at human S1PR1 receptor.
Regarding `O=C(O)CN1CCc2nc(-c3ccc(OCc4cccc(F)c4)cc3)ncc2C1` [Compound 27, 2-(2-(4-((3-fluorobenzyl)oxy)phenyl)-7,8-dihydropyrido[4,3-d]pyrimidin-6(5H)-yl)acetic acid], the concentration for a half-maximal effect (EC50) is over 1 µM at human S1PR4 receptor, 0.01 to 0.1 µM on human S1PR5 receptor and over 1 µM at human S1PR1 receptor.
Take `O=C(O)CN1CCc2nc(-c3ccc(OCc4cccc(F)c4F)cc3)ncc2C1` [Compound 28, 2-(2-(4-((2,3-difluorobenzyl)oxy)phenyl)-7,8-dihydropyrido[4,3-d]pyrimidin-6(5H)-yl)acetic acid]: the concentration for a half-maximal effect (EC50) on human S1PR4 receptor was under 1 µM; at human S1PR5 receptor it was 0.01 to 0.1 µM; at human S1PR1 receptor, over 1 µM.
On to `O=C(O)CN1CCc2nc(-c3ccc(OCc4ccc(Cl)cc4)cc3)ncc2C1` [Compound 29, 2-(2-(4-((4-chlorobenzyl)oxy)phenyl)-7,8-dihydropyrido[4,3-d]pyrimidin-6(5H)-yl)acetic acid], for which the EC50 was over 1 µM at human S1PR4 receptor, 0.1 to 1 µM on human S1PR5 receptor and over 1 µM at human S1PR1 receptor.
As to `Cc1ccc(C(F)(F)F)cc1COc1ccc(-c2ccc3c(n2)CCN(CCC(=O)O)C3)cc1` [Compound 158, 3-(2-(4-((2-methyl-5-(trifluoromethyl)benzyl)oxy)phenyl)-7,8-dihydro-1,6-naphthyridin-6(5H)-yl)propanoic acid], the concentration giving a half-maximal response (EC50) on human S1PR3 receptor is over 1 µM; at human S1PR5 receptor it was 0.01 to 0.1 µM; on human S1PR1 receptor it was over 1 µM.
As for `O=C(O)CCN1CCc2nc(-c3ccc(OCc4cccc(OC(F)F)c4)cc3)ccc2C1` [Compound 164, 3-(2-(4-((3-difluoromethoxybenzyl)oxy)phenyl)-7,8-dihydro-1,6-naphthyridin-6(5H)-yl)propanoic acid], the figures for the half-maximal effective concentration (EC50) on human S1PR3 receptor, on human S1PR5 receptor and on human S1PR1 receptor were over 1 µM, under 0.01 µM and under 1 µM, respectively.
On the same counts, the results for `Cc1cc(-c2ccc3c(n2)CCN(CCC(=O)O)C3)ccc1OCc1ccc(F)cc1` [Compound 168, 3-(2-(4-((4-fluorobenzyl)oxy)-3-methylphenyl)-7,8-dihydro-1,6-naphthyridin-6(5H)-yl)propanoic acid] are over 1 µM, 0.01 to 0.1 µM and over 1 µM.
The matching figures for `Cc1cc(-c2cc3c(cn2)CN(CCC(=O)O)CC3)ccc1OCc1ccccc1` [Compound 171, 3-(6-(4-(benzyloxy)-3-methylphenyl)-3,4-dihydro-2,7-naphthyridin-2(1H)-yl)propanoic acid]: over 1 µM, 0.01 to 0.1 µM and over 1 µM.
`O=C(O)CCN1CCc2nc(-c3ccc(OCc4ccc(Cl)cc4)cc3)c(F)cc2C1` [Compound 187, 3-(2-(4-((4-chlorobenzyl)oxy)phenyl)-3-fluoro-7,8-dihydro-1,6-naphthyridin-6(5H)-yl)propanoic acid]: the results for the 50% effective concentration (EC50) at human S1PR3 receptor, on human S1PR5 receptor and at human S1PR1 receptor were over 1 µM, under 0.01 µM and under 1 µM, respectively.
The matching figures for `O=C(O)CCN1CCc2nc(-c3ccc(OCc4ccc(F)cc4)cc3)c(F)cc2C1` [Compound 190, 3-(2-(4-((4-fluorobenzyl)oxy)phenyl)-3-fluoro-7,8-dihydro-1,6-naphthyridin-6(5H)-yl)propanoic acid]: over 1 µM, under 0.01 µM and under 1 µM.
On the same counts, the results for `O=C(O)CCN1CCc2nc(-c3ccc(OCc4ccc(C(F)(F)F)cc4)cc3)c(F)cc2C1` [Compound 191, 3-(2-(4-((4-trifluoromethylbenzyl)oxy)phenyl)-3-fluoro-7,8-dihydro-1,6-naphthyridin-6(5H)-yl)propanoic acid] are over 1 µM, under 0.01 µM and under 1 µM.
On the same counts, the results for `O=C(O)CCN1CCc2nc(-c3ccc(OCc4cccc(C(F)(F)F)c4)cc3)c(F)cc2C1` [Compound 194, 3-(2-(4-((3-trifluoromethylbenzyl)oxy)phenyl)-3-fluoro-7,8-dihydro-1,6-naphthyridin-6(5H)-yl)propanoic acid] are over 1 µM, under 0.01 µM and over 1 µM.
Regarding `CCc1cccc(Cl)c1COc1ccc(-c2nc3c(cc2F)CN(CCC(=O)O)CC3)cc1` [Compound 196, 3-(2-(4-((2-chloro-6-ethylbenzyl)oxy)phenyl)-3-fluoro-7,8-dihydro-1,6-naphthyridin-6(5H)-yl)propanoic acid], the concentration for a half-maximal effect (EC50) at human S1PR3 receptor was over 1 µM; at human S1PR5 receptor it was 0.01 to 0.1 µM; at human S1PR1 receptor, over 1 µM.
With `O=C(O)CCN1CCc2nc(-c3ccc(OCc4cccc(F)c4F)cc3)c(F)cc2C1` [Compound 197], the EC50 at human S1PR3 receptor was over 1 µM; on human S1PR5 receptor, under 0.01 µM; at human S1PR1 receptor, under 1 µM.
On the same counts, the results for `O=C(O)CCN1CCc2nc(-c3ccc(OCc4ccc(F)c(F)c4)cc3)c(F)cc2C1` [Compound 198, 3-(2-(4-((3,4-difluorobenzyl)oxy)phenyl)-3-fluoro-7,8-dihydro-1,6-naphthyridin-6(5H)-yl)propanoic acid] are over 1 µM, under 0.01 µM and under 1 µM.
Regarding `CC(CC(=O)O)N1Cc2ccc(-c3ccc(OCc4c(Cl)cccc4Cl)cc3)nc2C1` (stereo not drawn) [Compound 201, 3-(2-(4-((2,6-dichlorobenzyl)oxy)phenyl)-5H-pyrrolo[3,4-b]pyridin-6(7H)-yl)butanoic acid], the EC50 on human S1PR3 receptor is over 1 µM; on human S1PR5 receptor it was 1 to 10 µM; at human S1PR1 receptor it was over 1 µM.
For the compound `O=C(O)CCN1Cc2ccc(-c3cccc(OCc4cccc(F)c4)c3)nc2C1` [Compound 203, 3-(2-(3-((3-fluorobenzyl)oxy)phenyl)-5H-pyrrolo[3,4-b]pyridin-6(7H)-yl)propanoic acid], the 50% effective concentration (EC50) at human S1PR3 receptor is over 1 µM; on human S1PR5 receptor it was 1 to 10 µM; on human S1PR1 receptor, over 1 µM.
On to `O=C(O)CCN1Cc2ccc(-c3cccc(OCc4ccccc4)c3)nc2C1` [Compound 204, 3-(2-(3-(benzyloxy)phenyl)-5H-pyrrolo[3,4-b]pyridin-6(7H)-yl)propanoic acid], for which the EC50 on human S1PR3 receptor was over 1 µM; at human S1PR5 receptor, 1 to 10 µM; on human S1PR1 receptor it was over 1 µM.
Regarding `O=C(O)CCN1CCc2ncc(-c3ccc(OCc4ccccc4)cc3)nc2C1` [Compound 221, 3-(3-(4-(benzyloxy)phenyl)-7,8-dihydropyrido[3,4-b]pyrazin-6(5H)-yl)propanoic acid], the EC50 is over 1 µM on human S1PR3 receptor, 1 to 10 µM at human S1PR5 receptor and over 1 µM at human S1PR1 receptor.
Turning to `O=C(O)CCN1CCc2ncc(-c3ccc(OCc4cccc(Cl)c4)cc3)nc2C1` [Compound 222, 3-(3-(4-((3-chlorobenzyl)oxy)phenyl)-7,8-dihydropyrido[3,4-b]pyrazin-6(5H)-yl)propanoic acid], the concentration for a half-maximal effect (EC50) on human S1PR3 receptor is over 1 µM; at human S1PR5 receptor it was 1 to 10 µM; at human S1PR1 receptor, over 1 µM.
For the compound `O=C(O)CCN1CCc2ncc(-c3ccc(OCc4ccc(Cl)cc4)cc3)nc2C1` [Compound 223, 3-(3-(4-((4-chlorobenzyl)oxy)phenyl)-7,8-dihydropyrido[3,4-b]pyrazin-6(5H)-yl)propanoic acid], the figures for the concentration for a half-maximal effect (EC50) on human S1PR3 receptor, at human S1PR5 receptor and on human S1PR1 receptor were over 1 µM, 1 to 10 µM and over 1 µM, respectively.
